Data taken from EP2792360A1, “(1aR,12bS)-8-cyclohexyl-11-fluoro-N-((1-methylcyclopropyl)sulfonyl)-1a-((3-methyl-3,8-diazabicyclo[3.2.1]oct-8-yl)carbonyl)-1,1a,2,2b-tetrahydrocyclopropa[d]indolo[2,1-a][2]benzazepine-5-carboxamide for use in treating HCV” (IP Gesellschaft für Management mbH, priority 2013, dated 2014).
Entries after “also recorded” stand apart in the source; their conditions may differ. Counter-ions that a name gives are not always drawn.

Assay: Salt selection screens of Formula V free base (organic solvents, aqueous, concentrated acids; XRPD)
Type: physicochemical
Settings: for XRPD post 1 day maturation / XRPD post 4 days maturation: HCl salt screen, HCl 1.1 equivalents
Description: Example 8: Salt Selection: Preparation of the hydrochloride salt was performed in the 20 solvents used for the solubility screen in order to select the optimal solvents for the salt screen. Formula V free base (ca. 10 mg) was suspended in the selected solvents (50 volumes; 500 µl) with stirring at 40°C. HCl (1.1 equivalents; […] in THF) was added, and the temperature was maintained for 30 minutes. […] The experiments were left cycling for further three days. […] Table 2. Results of HCl salt screen from 20 different solvents
Formula V free base (ca. 30 mg) was suspended in selected solvents (THF, nitromethane, acetonitrile and MEK; 50 volumes, 1.5 mL) at 50°C with stirring. The corresponding acid (1 equivalent) was added and the samples were stirred for 30 minutes, prior to ramping at 1 °C -min_1 to 25°C. The samples were placed in a shaker and subjected to heating/cooling cycles, between room temperature and 50°C, with four hours at each condition. Table 3. Input materials used for the salt screen
Further solvent (25 volumes) was added, and the suspensions were allowed to cycle for four more days. […] The samples were stored in a shaker and subjected to heating/cooling cycles, between room temperature and 50°C, with four hours at each condition for one week. […] Water (10% for MeCN, and 5% for THF, MEK and nitromethane, based on ca. 1.5 mL solvent) was added and the samples were cycled for a further 5 days. […] Table 4. XRPD results from the salt screen in acetonitrile.
An aqueous screen was performed. […] Table 11. Aqueous salt screen
The preparation of salts was conducted by dissolution in concentrated aqueous inorganic acids followed by precipitation with THF. Two procedures were performed, on 10 mg or 50 mg scale, investigating the effect of the order of addition of THF on the product produced.
Procedure A: Formula V free base (ca. 10 mg) was dissolved in the corresponding concentrated acid (50 µl) with stirring at room temperature and was added dropwise over THF (500 µl). Samples using HBr and HCl yielded solids and were shaken for 10 minutes and the solid was vacuum filtered, and dried under suction. H3PO4 yielded a solution that was subjected to heating/cooling cycles between room temperature and 50°C, four hours under each condition for 7 days. Procedure B: Formula V free base (ca. 50 mg) was dissolved in the corresponding concentrated acids (250 µl) with stirring at room temperature. THF (2.5 mL) was added dropwise to the solutions, and precipitation started. The samples were shaken for 30 minutes before being placed at 2-8°C for ca. 16 hours. HBr and HCl produced solids, which were vacuum filtered, washed with THF, dried under suction and under vacuum at 40°C for 16 hours. Table 13. Results from the salt screen from concentrated aqueous acids

[1] = salt screen from concentrated aqueous acids, Formula V free base, Procedure A
[2] = salt screen from concentrated aqueous acids, Formula V free base, Procedure B
[3] = solvent 1-4-Dioxane (entry -13)
[4] = solvent Acetonitrile (entry -04)
[5] = salts from concentrated acids, second Details column (presumably Procedure B), listed as HCl salt
[6] = HBr salt obtained in the salt screen, Acetonitrile
[7] = HBr salt obtained in the salt screen, THF
[8] = salts from concentrated acids, second Details column (presumably Procedure B), listed as HBr salt

In the case of `O=P(O)(O)O` [Compound H3PO4], the Maturation [1] is reported as “Oil”, the “Observations after adda of THF” value [1] is reported as “Solution” and the “Observations after adda of THF” value [2] is reported as “Oil”.
In the case of `Br` [HBr], the “Observations after adda of THF” value [1] is reported as “While suspension” and the “Observations after adda of THF” value [2] is reported as “White suspension”.
For `Cl` [HCl], the “Observations after adda of THF” value [1] was “White suspension” and the “Observations after adda of THF” value [2] was “White suspension”.
In the case of `Nc1nc2cc(-c3ccc4ncc(C(=O)N5CCOCC5)n4c3)ccc2o1` [compound of Formula V, (6-(2-aminobenzo[d]oxazol-5-yl)imidazo[1,2-a]pyridin-3-yl)(morpholino)methanone], the “XRPD post 1 day maturation” value [3] is reported as “New peaks free base (loss of crystallinity)”, the “XRPD post 4 days maturation” value [3] is reported as “Amorphous” and the “XRPD post 1 day maturation” value (solvent Acetone (entry -05)) is reported as “New peaks + free base”. The “XRPD post 4 days maturation” value (solvent Acetone (entry -05)) was “Free base”, the “XRPD post 1 day maturation” value [4] was “New peaks + free base” and the “XRPD post 4 days maturation” value [4] was “HCl Pattern 1”. The “XRPD post 1 day maturation” value (solvent BuOAc (entry -16)) was “New peaks + free base (loss of crystallinity)”, the “XRPD post 4 days maturation” value (solvent BuOAc (entry -16)) was “New peaks + free base (loss of crystallinity)” and the “XRPD post 1 day maturation” value (solvent DCM (entry -17)) was “New peaks + free base (loss of crystallinity)”. The “XRPD post 4 days maturation” value (solvent DCM (entry -17)) was “New peaks + free base (loss of crystallinity)”, the “XRPD post 1 day maturation” value (solvent DIPE (entry -10)) was “New peaks + free base” and the “XRPD post 4 days maturation” value (solvent DIPE (entry -10)) was “New peaks + free base”. For the same compound, the “XRPD post 1 day maturation” value (solvent EtOAc (entry -08)) was “New peaks + free base (loss of crystallinity)”, the “XRPD post 4 days maturation” value (solvent EtOAc (entry -08)) was “New peaks + free base” and the “XRPD post 1 day maturation” value (solvent Ethanol (entry -02)) was “New peaks + free base (loss of crystallinity)”. For the same compound, the “XRPD post 4 days maturation” value (solvent Ethanol (entry -02)) was “Amorphous”, the “XRPD post 1 day maturation” value (solvent IPA (entry -03)) was “New peaks + free base (loss of crystallinity)” and the “XRPD post 4 days maturation” value (solvent IPA (entry -03)) was “Amorphous”. For the same compound, the “XRPD post 1 day maturation” value (solvent IPAc (entry -09)) was “New peaks + free base (loss of crystallinity)”, the “XRPD post 4 days maturation” value (solvent IPAc (entry -09)) was “New peaks + free base” and the “XRPD post 1 day maturation” value (solvent MEK (entry -06)) was “New peaks + free base”. For the same compound, the “XRPD post 4 days maturation” value (solvent MEK (entry -06)) was “HCl Pattern 1”, the “XRPD post 1 day maturation” value (solvent MIBK (entry -07)) was “New peaks + free base” and the “XRPD post 4 days maturation” value (solvent MIBK (entry -07)) was “New peaks + free base”. For the same compound, the “XRPD post 1 day maturation” value (solvent MeNO2 (entry -14)) was “HCl Pattern I”, the “XRPD post 1 day maturation” value (solvent Methanol (entry -01)) was “New peaks + free base (loss of crystallinity)” and the “XRPD post 4 days maturation” value (solvent Methanol (entry -01)) was “Loss of crystallinity”. The “XRPD post 1 day maturation” value (solvent TBME (entry -11)) was “New peaks + free base”, the “XRPD post 4 days maturation” value (solvent TBME (entry -11)) was “New peaks + free base” and the “XRPD post 1 day maturation” value (solvent THF (entry -12)) was “New peaks + free base (loss of crystallinity)”. For the same compound, the “XRPD post 4 days maturation” value (solvent THF (entry -12)) was “HCl Pattern 1”, the “XRPD post 1 day maturation” value (solvent Toluene (entry -15)) was “New peaks + free base” and the “XRPD post 4 days maturation” value (solvent Toluene (entry -15)) was “New peaks + free base”. For the same compound, the “XRPD post 1 day maturation” value (solvent tBuOH (entry -18)) was “New peaks + free base” and the “XRPD post 4 days maturation” value (solvent tBuOH (entry -18)) was “Free base”.
In the case of `Nc1nc2cc(-c3ccc4ncc(C(=O)N5CCOCC5)n4c3)ccc2o1` [{drug5a}, (6-(2-aminobenzo[d]oxazol-5-yl)imidazo[1,2-a]pyridin-3-yl)(morpholino)methanone], the “Ion Chromatography” value (HCl salt from nitromethane) is reported as 0.8 eqs Cl, the “XRPD (vacuum dried)” value (HCl salt from nitromethane) is reported as “HCl Pattern 1” and the “Ion Chromatography” value (HCl salts from concentrated acids, first Details column (presumably Procedure A)) is reported as 1.6 eqs Cl. The “Ion Chromatography” value (HCl salts from concentrated acids, second Details column (presumably Procedure B)) was 1.7 eqs Cl, the “XRPD (air dried)” value (salts from concentrated acids, first Details column (presumably Procedure A), listed as HCl salt) was “HCl Pattern 2” and the “XRPD (air dried)” value [5] was “HCl Pattern 2”. For the same compound, the “XRPD (vacuum dried)” value [5] was “HCl Pattern 2; also recorded: Slight changes, more peaks”.
In the case of `Nc1nc2cc(-c3ccc4ncc(C(=O)N5CCOCC5)n4c3)ccc2o1` [{drug5b}, (6-(2-aminobenzo[d]oxazol-5-yl)imidazo[1,2-a]pyridin-3-yl)(morpholino)methanone], the “Ion Chromatography” value (HBr salt from aqueous screen) is reported as 0.8 eqs Cl, the “XRPD (vacuum dried)” value (HBr salt from aqueous screen) is reported as “HBr Pattern 3” and the “Ion Chromatography” value [6] is reported as 1.1 eqs C 1. For the same compound, the “XRPD (vacuum dried)” value [6] was “HBr Pattern 1, slight evidence of FB”, the “XRPD (vacuum dried)” value (HBr salt obtained in the salt screen, Nitromethane) was “HBr Pattern 1, slight evidence of FB” and the “Ion Chromatography” value [7] was 0.8 eqs Cl. For the same compound, the “XRPD (vacuum dried)” value [7] was “HBr Pattern 1”, the “Ion Chromatography” value (HBr salts from concentrated acids, first Details column (presumably Procedure A)) was 1.7 eqs Br and the “Ion Chromatography” value (HBr salts from concentrated acids, second Details column (presumably Procedure B)) was 1.8 eqs Br. For the same compound, the “XRPD (air dried)” value (salts from concentrated acids, first Details column (presumably Procedure A), listed as HBr salt) was “HBr Pattern 2”, the “XRPD (air dried)” value [8] was “HBr Pattern 4” and the “XRPD (vacuum dried)” value [8] was “HBr Pattern 4; also recorded: Slight changes, more peaks”.
